From ChEMBL document CHEMBL3885881, “DrugMatrix”

Organism: Rattus norvegicus
Assay: DrugMatrix - Regimen: Daily Repeat
Type: toxicity, organism-based, Sprague-Dawley
Parameters: regimen Daily Repeat, gender Male, age 6-8 weeks
Details: in vivo, po, route oral GAVAGE; for POTASSIUM / SODIUM / TOTAL BILIRUBIN / TOTAL PROTEIN / URIC ACID / ALANINE AMINOTRANSFERASE / ALBUMIN / ALKALINE PHOSPHATASE / ASPARTATE AMINOTRANSFERASE / BLOOD UREA NITROGEN / CARBON DIOXIDE / CHLORIDE / CHOLESTEROL / CREATINE PHOSPHOKINASE / CREATININE / GLUCOSE / LACTATE DEHYDROGENASE / LIPASE / PHOSPHORUS: tissue Plasma; for ABSOLUTE EOSINOPHIL / ABSOLUTE LYMPHOCYTE / ABSOLUTE MONOCYTE / ABSOLUTE SEGMENTED NEUTROPHIL / EOSINOPHIL / ERYTHROCYTE COUNT / HEMATOCRIT / HEMOGLOBIN / LEUKOCYTE COUNT / LYMPHOCYTE / MEAN CORPUSCULAR HEMOGLOBIN / MEAN CORPUSCULAR HEMOGLOBIN CONCENTRATION / MEAN CORPUSCULAR VOLUME / MONOCYTE / NEUTROPHIL / PLATELET COUNT / ABSOLUTE BASOPHIL / BASOPHIL / NUCLEATED RED BLOOD CELLS: tissue Blood
[1] = 60 mg/kg, 120 h, dose level Low, time 5 day, vehicle 100 % WATER
[2] = 600 mg/kg, 72 h, dose level High, time 3 day, […]
[3] = 600 mg/kg, 72 h, dose level High, time 3 day, vehicle 100 % WATER
[4] = 600 mg/kg, 120 h, dose level High, time 5 day, […]
[5] = 600 mg/kg, 120 h, dose level High, time 5 day, vehicle 100 % WATER

ClC(Cl)Cl [CHLOROFORM]
POTASSIUM [1]: 6.14 MEQ/L | SODIUM [1]: 145.6 MEQ/L | TOTAL BILIRUBIN [1]: 0.1 mg/dL | TOTAL PROTEIN [1]: 6.3 G/DL | URIC ACID [1]: 1.5 mg/dL | ABSOLUTE EOSINOPHIL [2]: 29.6 CELLS/uL | ABSOLUTE LYMPHOCYTE [2]: 12329.2 CELLS/uL | ABSOLUTE MONOCYTE [2]: 476.6 CELLS/uL | ABSOLUTE SEGMENTED NEUTROPHIL [2]: 1764.6 CELLS/uL | EOSINOPHIL [2]: 0.2% | ERYTHROCYTE COUNT [2]: 7.17 x10E6/uL | HEMATOCRIT [2]: 43% | HEMOGLOBIN [2]: 15.88 G/DL | LEUKOCYTE COUNT [2]: 14.6 x10E3/uL | LYMPHOCYTE [2]: 84.4% | MEAN CORPUSCULAR HEMOGLOBIN [2]: 22.2 pg | MEAN CORPUSCULAR HEMOGLOBIN CONCENTRATION [2]: 37 G/DL | MEAN CORPUSCULAR VOLUME [2]: 60.02 fL | MONOCYTE [2]: 3.2% | NEUTROPHIL [2]: 12.2% | PLATELET COUNT [2]: 1301.6 x10E3/uL | ABSOLUTE BASOPHIL [3]: 0 CELLS/uL | ABSOLUTE EOSINOPHIL [3]: 0 CELLS/uL | ABSOLUTE LYMPHOCYTE [3]: 7700 CELLS/uL | ABSOLUTE MONOCYTE [3]: 77.67 CELLS/uL | ABSOLUTE SEGMENTED NEUTROPHIL [3]: 589 CELLS/uL | BASOPHIL [3]: 0% | EOSINOPHIL [3]: 0% | ERYTHROCYTE COUNT [3]: 6.05 x10E6/uL | HEMATOCRIT [3]: 38.4% | HEMOGLOBIN [3]: 14.97 G/DL | LEUKOCYTE COUNT [3]: 8.37 x10E3/uL | LYMPHOCYTE [3]: 88% | MEAN CORPUSCULAR HEMOGLOBIN [3]: 24.73 pg | MEAN CORPUSCULAR HEMOGLOBIN CONCENTRATION [3]: 38.97 G/DL | MEAN CORPUSCULAR VOLUME [3]: 63.43 fL | MONOCYTE [3]: 1.33% | NEUTROPHIL [3]: 10.67% | NUCLEATED RED BLOOD CELLS [3]: 0 /100WBC | PLATELET COUNT [3]: 1080.33 x10E3/uL | ALANINE AMINOTRANSFERASE [2]: 196 u/L | ALBUMIN [2]: 4.36 G/DL | ALKALINE PHOSPHATASE [2]: 902 u/L | ASPARTATE AMINOTRANSFERASE [2]: 462.4 u/L | BLOOD UREA NITROGEN [2]: 20.8 mg/dL | CARBON DIOXIDE [2]: 16.6 mmol/L | CHLORIDE [2]: 107.4 MEQ/L | CHOLESTEROL [2]: 77.6 mg/dL | CREATINE PHOSPHOKINASE [2]: 516 u/L | CREATININE [2]: 0.44 mg/dL | GLUCOSE [2]: 134.8 mg/dL | LACTATE DEHYDROGENASE [2]: 597.4 u/L | LIPASE [2]: 10.6 u/L | PHOSPHORUS [2]: 13.48 mg/dL | POTASSIUM [2]: 5.66 MEQ/L | SODIUM [2]: 144.48 MEQ/L | TOTAL BILIRUBIN [2]: 0.72 mg/dL | TOTAL PROTEIN [2]: 6.04 G/DL | URIC ACID [2]: 2.72 mg/dL | ALANINE AMINOTRANSFERASE [3]: 73.33 u/L | ALBUMIN [3]: 4.4 G/DL | ALKALINE PHOSPHATASE [3]: 416 u/L | ASPARTATE AMINOTRANSFERASE [3]: 103.67 u/L | BLOOD UREA NITROGEN [3]: 14.67 mg/dL | CARBON DIOXIDE [3]: 34.33 mmol/L | CHLORIDE [3]: 98.67 MEQ/L | CHOLESTEROL [3]: 81.67 mg/dL | CREATINE PHOSPHOKINASE [3]: 203.67 u/L | CREATININE [3]: 0.22 mg/dL | GLUCOSE [3]: 153.67 mg/dL | LACTATE DEHYDROGENASE [3]: 179 u/L | LIPASE [3]: 10.67 u/L | PHOSPHORUS [3]: 10 mg/dL | POTASSIUM [3]: 5.43 MEQ/L | SODIUM [3]: 144.7 MEQ/L | TOTAL BILIRUBIN [3]: 0.13 mg/dL | TOTAL PROTEIN [3]: 6.6 G/DL | URIC ACID [3]: 0.7 mg/dL | ABSOLUTE LYMPHOCYTE [4]: 11359.33 CELLS/uL | ABSOLUTE MONOCYTE [4]: 227.33 CELLS/uL | ABSOLUTE SEGMENTED NEUTROPHIL [4]: 6880 CELLS/uL | ERYTHROCYTE COUNT [4]: 7.17 x10E6/uL | HEMATOCRIT [4]: 42.1% | HEMOGLOBIN [4]: 15.6 G/DL | LEUKOCYTE COUNT [4]: 18.47 x10E3/uL | LYMPHOCYTE [4]: 73% | MEAN CORPUSCULAR HEMOGLOBIN [4]: 21.73 pg | MEAN CORPUSCULAR HEMOGLOBIN CONCENTRATION [4]: 37.07 G/DL | MEAN CORPUSCULAR VOLUME [4]: 58.7 fL | MONOCYTE [4]: 2% | NEUTROPHIL [4]: 25% | PLATELET COUNT [4]: 1040.67 x10E3/uL | ABSOLUTE BASOPHIL [5]: 0 CELLS/uL | ABSOLUTE EOSINOPHIL [5]: 0 CELLS/uL | ABSOLUTE LYMPHOCYTE [5]: 9175.5 CELLS/uL | ABSOLUTE MONOCYTE [5]: 105.5 CELLS/uL | ABSOLUTE SEGMENTED NEUTROPHIL [5]: 1269 CELLS/uL | BASOPHIL [5]: 0% | EOSINOPHIL [5]: 0% | ERYTHROCYTE COUNT [5]: 6.48 x10E6/uL | HEMATOCRIT [5]: 39.2% | HEMOGLOBIN [5]: 15.15 G/DL | LEUKOCYTE COUNT [5]: 10.55 x10E3/uL | LYMPHOCYTE [5]: 88% | MEAN CORPUSCULAR HEMOGLOBIN [5]: 23.4 pg | MEAN CORPUSCULAR HEMOGLOBIN CONCENTRATION [5]: 38.7 G/DL | MEAN CORPUSCULAR VOLUME [5]: 60.5 fL | MONOCYTE [5]: 1% | NEUTROPHIL [5]: 11% | NUCLEATED RED BLOOD CELLS [5]: 0 /100WBC | PLATELET COUNT [5]: 959 x10E3/uL | ALANINE AMINOTRANSFERASE [4]: 212 u/L | ALBUMIN [4]: 4.1 G/DL | ALKALINE PHOSPHATASE [4]: 626 u/L | ASPARTATE AMINOTRANSFERASE [4]: 299.67 u/L | BLOOD UREA NITROGEN [4]: 49.67 mg/dL | CARBON DIOXIDE [4]: 19.67 mmol/L | CHLORIDE [4]: 110.67 MEQ/L | CHOLESTEROL [4]: 110.33 mg/dL | CREATINE PHOSPHOKINASE [4]: 744 u/L | CREATININE [4]: 0.83 mg/dL | GLUCOSE [4]: 119.33 mg/dL | LACTATE DEHYDROGENASE [4]: 376 u/L | PHOSPHORUS [4]: 13.27 mg/dL | POTASSIUM [4]: 9.12 MEQ/L | SODIUM [4]: 144.83 MEQ/L | TOTAL BILIRUBIN [4]: 0.63 mg/dL | TOTAL PROTEIN [4]: 5.77 G/DL | URIC ACID [4]: 1.3 mg/dL | ALANINE AMINOTRANSFERASE [5]: 46.5 u/L | ALBUMIN [5]: 4.05 G/DL | ALKALINE PHOSPHATASE [5]: 305.5 u/L | ASPARTATE AMINOTRANSFERASE [5]: 71 u/L | BLOOD UREA NITROGEN [5]: 15 mg/dL | CARBON DIOXIDE [5]: 29 mmol/L | CHLORIDE [5]: 102.5 MEQ/L | CHOLESTEROL [5]: 69 mg/dL | CREATINE PHOSPHOKINASE [5]: 475.5 u/L | CREATININE [5]: 0.21 mg/dL | GLUCOSE [5]: 150.5 mg/dL | LACTATE DEHYDROGENASE [5]: 93 u/L | LIPASE [5]: 11 u/L | PHOSPHORUS [5]: 11.45 mg/dL | POTASSIUM [5]: 5.24 MEQ/L | SODIUM [5]: 146.9 MEQ/L | TOTAL BILIRUBIN [5]: 0.1 mg/dL | TOTAL PROTEIN [5]: 6.05 G/DL | URIC ACID [5]: 0.95 mg/dL
